Test results as given in US6399561B1, “Methods and compositions for bleaching a dye in solution” (Novozymes A/S, priority 1998, dated 2002).

Tests used:
Type in all cases: biochemical
[1] = target: T1, Polyporus pinsitus laccase (Trametes villosa, UniProt Q99044); experiment: Bleaching of methyl orange using rPpL and NOH-type enhancing agents (initial bleaching rate); settings: rPpL solution diluted 1:200, 0.2 mM mediator, 30° C., large negative numbers = best performance
T1 construct: made in house
T1 sequence (Q99044 22-520): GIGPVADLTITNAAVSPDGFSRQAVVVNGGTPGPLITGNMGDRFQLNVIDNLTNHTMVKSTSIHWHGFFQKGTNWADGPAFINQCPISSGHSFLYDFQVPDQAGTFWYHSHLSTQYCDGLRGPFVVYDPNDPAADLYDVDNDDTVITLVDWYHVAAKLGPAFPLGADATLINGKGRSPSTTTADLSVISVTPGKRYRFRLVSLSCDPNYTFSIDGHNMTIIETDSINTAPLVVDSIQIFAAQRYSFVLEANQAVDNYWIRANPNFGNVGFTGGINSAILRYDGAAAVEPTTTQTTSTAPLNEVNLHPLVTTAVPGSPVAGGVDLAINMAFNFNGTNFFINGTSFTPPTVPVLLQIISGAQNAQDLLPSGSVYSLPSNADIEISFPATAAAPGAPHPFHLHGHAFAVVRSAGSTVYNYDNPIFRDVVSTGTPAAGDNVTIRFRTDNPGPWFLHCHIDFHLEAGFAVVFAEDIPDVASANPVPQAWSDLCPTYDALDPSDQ
Protocol: (§1) Britton-Robinson buffer is composed of:
(§2) Methyl orange (Merck, Germany)
(§3) Reactions were started by addition of enzyme. Absorbance at 464 nm was followed for 3 minutes (readings every 5 seconds) on a Cobas Fara at 30° C. Initial bleaching rates were determined from the first linear part of the progress curves.
(§4) The N—OH compounds listed above were tested as laccase mediators in bleaching of methyl orange with three recombinant laccases (rPpL, rMtL and rCcL) at various pH values. Large negative numbers represent the best performance.

[2] = test system: Recombinant Myceliophthora thermophila laccase (rMtL); experiment: Bleaching of methyl orange using rMtL and NOH-type enhancing agents (initial bleaching rate); settings: rMtL solution diluted 1:300, 0.2 mM mediator, 30° C., large negative numbers = best performance
Protocol: as §1, §2, §3, §4

[3] = test system: Recombinant Coprinus cinereus laccase (rCcL); experiment: Bleaching of methyl orange using rCcL and NOH-type enhancing agents (initial bleaching rate); settings: rCcL solution diluted 1:200, 0.2 mM mediator, 30° C., large negative numbers = best performance
Protocol: as §1, §2, §3, §4

Compound	Initial changes per minute in A464 nm of methyl orange using rPpL ([1]; pH 4)	Initial changes per minute in A464 nm of methyl orange using rPpL ([1]; pH 5)	Initial changes per minute in A464 nm of methyl orange using rPpL ([1]; pH 6)	Initial changes per minute in A464 nm of methyl orange using rPpL ([1]; pH 7)	Initial changes per minute in A464 nm of methyl orange using rMtL ([2]; pH 4)	Initial changes per minute in A464 nm of methyl orange using rMtL ([2]; pH 5)	Initial changes per minute in A464 nm of methyl orange using rMtL ([2]; pH 6)	Initial changes per minute in A464 nm of methyl orange using rMtL ([2]; pH 7)	Initial changes per minute in A464 nm of methyl orange using rCcL ([3]; pH 4)	Initial changes per minute in A464 nm of methyl orange using rCcL ([3]; pH 5)	Initial changes per minute in A464 nm of methyl orange using rCcL ([3]; pH 6)	Initial changes per minute in A464 nm of methyl orange using rCcL ([3]; pH 7)	Initial changes per minute in A464 nm of methyl orange using rCcL ([3]; pH 8)
On1nnc2ccccc21 [1-hydroxybenzotriazole, 1-Hydroxybenzotriazole]	−0.206 per minute	−0.077 per minute	−0.017 per minute	−0.005 per minute	−0.050 per minute	−0.019 per minute	−0.007 per minute	−0.002 per minute	−0.016 per minute	−0.018 per minute	−0.019 per minute	−0.017 per minute	−0.005 per minute
CC[n+]1ccc(-c2ccc(S(=O)(=O)[O-])cc2)o1.O [2-Ethyl-5-phenylisoxazolium-4′-sulfonate, H2O]	−0.017 per minute	−0.017 per minute	−0.006 per minute	0.001 per minute	−0.012 per minute	−0.004 per minute	−0.002 per minute	0.000 per minute	0.005 per minute	0.000 per minute	−0.006 per minute	−0.004 per minute	−0.001 per minute
O=c1c2ccccc2nnn1O [3-hydroxy-1,2,3-benzotriazin-4(3H)-one, 3-Hydroxy-1,2,3-benzotriazin-4(3H)-one]	−0.020 per minute	−0.020 per minute	−0.008 per minute	0.000 per minute	−0.016 per minute	−0.011 per minute	−0.001 per minute	0.002 per minute	0.004 per minute	−0.004 per minute	−0.011 per minute	−0.008 per minute	−0.002 per minute
O=c1[nH]c(=O)[nH]c(=O)[nH]1 [Cyanuric acid]	−0.037 per minute	−0.022 per minute	−0.011 per minute	−0.002 per minute	−0.013 per minute	0.010 per minute	−0.002 per minute	0.000 per minute	−0.005 per minute	−0.008 per minute	−0.012 per minute	−0.012 per minute	−0.005 per minute
[O-][n+]1ccc2ccccc2c1 [Iso-quinoline-N-oxide]	−0.074 per minute	−0.037 per minute	−0.014 per minute	−0.002 per minute	−0.017 per minute	−0.010 per minute	−0.004 per minute	0.000 per minute	−0.002 per minute	−0.005 per minute	−0.008 per minute	−0.010 per minute	−0.004 per minute
O=C(c1ccccc1)N(O)c1ccccc1 [N-benzoyl-N-phenylhydroxylamine, N-Benzoyl-N-phenylhydroxylamine]	−0.732 per minute	−1.402 per minute	−0.420 per minute	−0.012 per minute	−0.269 per minute	−0.296 per minute	−0.082 per minute	−0.012 per minute	−0.163 per minute	−0.247 per minute	−0.529 per minute	−0.592 per minute	−0.124 per minute
O=C1c2ccccc2C(=O)N1O [N-hydroxyphthalimide]	−0.050 per minute	−0.035 per minute	−0.011 per minute	−0.001 per minute	−0.019 per minute	−0.016 per minute	−0.005 per minute	0.000 per minute	−0.006 per minute	−0.007 per minute	−0.014 per minute	−0.011 per minute	−0.004 per minute
